Measured values: ChEMBL document CHEMBL5291721, “A preclinical secondary pharmacology resource illuminates target-adverse drug reaction associations of marketed drugs” (Nat Commun, 2023)

Experiments:
[1] = molecular target: T1, Thromboxane A2 receptor (Homo sapiens, UniProt P21731)
T1 sequence (P21731 whole entry): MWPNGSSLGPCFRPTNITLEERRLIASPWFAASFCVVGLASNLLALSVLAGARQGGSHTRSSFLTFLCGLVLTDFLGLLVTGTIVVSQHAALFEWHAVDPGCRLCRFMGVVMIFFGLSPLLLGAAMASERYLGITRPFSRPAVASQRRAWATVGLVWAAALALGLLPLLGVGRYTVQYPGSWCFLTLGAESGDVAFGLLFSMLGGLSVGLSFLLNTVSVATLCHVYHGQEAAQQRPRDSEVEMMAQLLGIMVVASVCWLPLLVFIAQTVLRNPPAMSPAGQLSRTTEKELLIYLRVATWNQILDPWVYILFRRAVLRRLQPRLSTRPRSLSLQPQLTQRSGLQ

[2] = molecular target: Beta-2 adrenergic receptor (Homo sapiens, UniProt P07550)
[3] = molecular target: T2, Equilibrative nucleoside transporter 1 (Homo sapiens, UniProt Q99808)
T2 sequence (Q99808 whole entry): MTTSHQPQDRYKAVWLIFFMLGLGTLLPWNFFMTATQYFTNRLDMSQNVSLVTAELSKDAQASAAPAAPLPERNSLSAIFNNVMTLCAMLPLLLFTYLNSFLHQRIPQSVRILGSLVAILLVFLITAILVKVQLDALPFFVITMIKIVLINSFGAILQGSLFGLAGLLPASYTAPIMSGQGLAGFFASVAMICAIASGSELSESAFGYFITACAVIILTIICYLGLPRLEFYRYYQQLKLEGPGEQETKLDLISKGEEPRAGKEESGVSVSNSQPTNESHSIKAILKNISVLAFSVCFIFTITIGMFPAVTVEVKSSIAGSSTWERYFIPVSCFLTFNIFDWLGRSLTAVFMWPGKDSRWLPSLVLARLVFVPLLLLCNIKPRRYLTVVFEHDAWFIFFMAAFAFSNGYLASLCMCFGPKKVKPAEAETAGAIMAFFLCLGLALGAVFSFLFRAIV

[4] = molecular target: Voltage-dependent L-type calcium channel subunit alpha-1C (Rattus norvegicus, UniProt P22002); assay type: functional
[5] = molecular target: Sodium-dependent serotonin transporter (Homo sapiens, UniProt P31645)
[6] = molecular target: T3, Endothelin-1 receptor (Homo sapiens, UniProt P25101)
T3 sequence (P25101 whole entry): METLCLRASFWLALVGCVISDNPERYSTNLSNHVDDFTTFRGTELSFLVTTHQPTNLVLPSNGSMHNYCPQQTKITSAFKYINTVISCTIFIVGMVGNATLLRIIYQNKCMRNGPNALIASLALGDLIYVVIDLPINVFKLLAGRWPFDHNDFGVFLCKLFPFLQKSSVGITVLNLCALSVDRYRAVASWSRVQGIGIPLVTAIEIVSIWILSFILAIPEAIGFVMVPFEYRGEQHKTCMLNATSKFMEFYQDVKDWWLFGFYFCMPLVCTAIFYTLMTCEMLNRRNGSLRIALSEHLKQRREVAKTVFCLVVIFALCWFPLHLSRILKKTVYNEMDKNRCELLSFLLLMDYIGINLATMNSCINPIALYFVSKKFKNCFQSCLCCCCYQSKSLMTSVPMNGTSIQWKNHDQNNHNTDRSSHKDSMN

[7] = molecular target: T4, Progesterone receptor (Homo sapiens, UniProt P06401); assay type: functional
T4 sequence (P06401 whole entry): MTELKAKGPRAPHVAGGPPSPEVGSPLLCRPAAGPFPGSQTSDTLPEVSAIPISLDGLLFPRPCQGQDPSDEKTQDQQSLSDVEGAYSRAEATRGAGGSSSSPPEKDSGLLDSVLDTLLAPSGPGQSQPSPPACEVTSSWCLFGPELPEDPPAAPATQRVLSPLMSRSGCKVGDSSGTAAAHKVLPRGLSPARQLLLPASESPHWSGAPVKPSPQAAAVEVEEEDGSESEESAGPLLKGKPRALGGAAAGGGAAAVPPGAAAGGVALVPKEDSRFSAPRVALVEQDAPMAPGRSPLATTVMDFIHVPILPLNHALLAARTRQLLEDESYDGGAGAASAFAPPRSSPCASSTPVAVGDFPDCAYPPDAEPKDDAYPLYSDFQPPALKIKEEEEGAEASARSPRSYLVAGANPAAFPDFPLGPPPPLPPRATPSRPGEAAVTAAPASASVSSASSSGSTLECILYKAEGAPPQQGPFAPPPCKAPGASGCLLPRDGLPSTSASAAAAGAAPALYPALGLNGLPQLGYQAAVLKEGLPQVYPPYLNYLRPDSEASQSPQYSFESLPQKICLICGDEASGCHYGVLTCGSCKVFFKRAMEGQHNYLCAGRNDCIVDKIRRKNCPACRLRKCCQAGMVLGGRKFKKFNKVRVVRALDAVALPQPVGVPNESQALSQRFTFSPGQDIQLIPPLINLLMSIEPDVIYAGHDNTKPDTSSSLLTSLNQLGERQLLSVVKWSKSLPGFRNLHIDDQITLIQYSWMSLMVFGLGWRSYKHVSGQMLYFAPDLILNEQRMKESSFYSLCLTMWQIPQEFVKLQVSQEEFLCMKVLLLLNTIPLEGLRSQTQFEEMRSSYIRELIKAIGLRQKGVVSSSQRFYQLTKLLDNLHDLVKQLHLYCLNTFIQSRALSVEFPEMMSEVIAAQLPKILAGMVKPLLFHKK

[8] = molecular target: T5, Estrogen receptor (Homo sapiens, UniProt P03372)
T5 sequence (P03372 whole entry): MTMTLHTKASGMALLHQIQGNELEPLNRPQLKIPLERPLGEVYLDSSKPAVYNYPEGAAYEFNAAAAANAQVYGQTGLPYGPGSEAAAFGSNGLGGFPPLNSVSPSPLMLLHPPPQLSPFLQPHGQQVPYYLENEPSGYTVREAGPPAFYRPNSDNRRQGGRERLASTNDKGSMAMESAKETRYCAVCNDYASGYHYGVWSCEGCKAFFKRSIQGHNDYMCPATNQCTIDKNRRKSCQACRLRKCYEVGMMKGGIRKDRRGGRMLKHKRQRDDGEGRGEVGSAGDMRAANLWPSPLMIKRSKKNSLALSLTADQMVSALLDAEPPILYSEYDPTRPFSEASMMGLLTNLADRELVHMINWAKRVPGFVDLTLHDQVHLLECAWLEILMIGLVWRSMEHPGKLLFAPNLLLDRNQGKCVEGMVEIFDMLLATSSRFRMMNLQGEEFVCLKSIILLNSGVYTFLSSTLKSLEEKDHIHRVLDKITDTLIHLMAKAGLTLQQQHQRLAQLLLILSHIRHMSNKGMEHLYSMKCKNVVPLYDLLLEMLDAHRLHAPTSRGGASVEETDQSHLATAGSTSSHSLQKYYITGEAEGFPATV

[9] = molecular target: Motilin receptor (Homo sapiens, UniProt O43193)
Further: assay procedure not described here.

Voltage-dependent L-type calcium channel subunit alpha-1C, sequence (P22002 whole entry): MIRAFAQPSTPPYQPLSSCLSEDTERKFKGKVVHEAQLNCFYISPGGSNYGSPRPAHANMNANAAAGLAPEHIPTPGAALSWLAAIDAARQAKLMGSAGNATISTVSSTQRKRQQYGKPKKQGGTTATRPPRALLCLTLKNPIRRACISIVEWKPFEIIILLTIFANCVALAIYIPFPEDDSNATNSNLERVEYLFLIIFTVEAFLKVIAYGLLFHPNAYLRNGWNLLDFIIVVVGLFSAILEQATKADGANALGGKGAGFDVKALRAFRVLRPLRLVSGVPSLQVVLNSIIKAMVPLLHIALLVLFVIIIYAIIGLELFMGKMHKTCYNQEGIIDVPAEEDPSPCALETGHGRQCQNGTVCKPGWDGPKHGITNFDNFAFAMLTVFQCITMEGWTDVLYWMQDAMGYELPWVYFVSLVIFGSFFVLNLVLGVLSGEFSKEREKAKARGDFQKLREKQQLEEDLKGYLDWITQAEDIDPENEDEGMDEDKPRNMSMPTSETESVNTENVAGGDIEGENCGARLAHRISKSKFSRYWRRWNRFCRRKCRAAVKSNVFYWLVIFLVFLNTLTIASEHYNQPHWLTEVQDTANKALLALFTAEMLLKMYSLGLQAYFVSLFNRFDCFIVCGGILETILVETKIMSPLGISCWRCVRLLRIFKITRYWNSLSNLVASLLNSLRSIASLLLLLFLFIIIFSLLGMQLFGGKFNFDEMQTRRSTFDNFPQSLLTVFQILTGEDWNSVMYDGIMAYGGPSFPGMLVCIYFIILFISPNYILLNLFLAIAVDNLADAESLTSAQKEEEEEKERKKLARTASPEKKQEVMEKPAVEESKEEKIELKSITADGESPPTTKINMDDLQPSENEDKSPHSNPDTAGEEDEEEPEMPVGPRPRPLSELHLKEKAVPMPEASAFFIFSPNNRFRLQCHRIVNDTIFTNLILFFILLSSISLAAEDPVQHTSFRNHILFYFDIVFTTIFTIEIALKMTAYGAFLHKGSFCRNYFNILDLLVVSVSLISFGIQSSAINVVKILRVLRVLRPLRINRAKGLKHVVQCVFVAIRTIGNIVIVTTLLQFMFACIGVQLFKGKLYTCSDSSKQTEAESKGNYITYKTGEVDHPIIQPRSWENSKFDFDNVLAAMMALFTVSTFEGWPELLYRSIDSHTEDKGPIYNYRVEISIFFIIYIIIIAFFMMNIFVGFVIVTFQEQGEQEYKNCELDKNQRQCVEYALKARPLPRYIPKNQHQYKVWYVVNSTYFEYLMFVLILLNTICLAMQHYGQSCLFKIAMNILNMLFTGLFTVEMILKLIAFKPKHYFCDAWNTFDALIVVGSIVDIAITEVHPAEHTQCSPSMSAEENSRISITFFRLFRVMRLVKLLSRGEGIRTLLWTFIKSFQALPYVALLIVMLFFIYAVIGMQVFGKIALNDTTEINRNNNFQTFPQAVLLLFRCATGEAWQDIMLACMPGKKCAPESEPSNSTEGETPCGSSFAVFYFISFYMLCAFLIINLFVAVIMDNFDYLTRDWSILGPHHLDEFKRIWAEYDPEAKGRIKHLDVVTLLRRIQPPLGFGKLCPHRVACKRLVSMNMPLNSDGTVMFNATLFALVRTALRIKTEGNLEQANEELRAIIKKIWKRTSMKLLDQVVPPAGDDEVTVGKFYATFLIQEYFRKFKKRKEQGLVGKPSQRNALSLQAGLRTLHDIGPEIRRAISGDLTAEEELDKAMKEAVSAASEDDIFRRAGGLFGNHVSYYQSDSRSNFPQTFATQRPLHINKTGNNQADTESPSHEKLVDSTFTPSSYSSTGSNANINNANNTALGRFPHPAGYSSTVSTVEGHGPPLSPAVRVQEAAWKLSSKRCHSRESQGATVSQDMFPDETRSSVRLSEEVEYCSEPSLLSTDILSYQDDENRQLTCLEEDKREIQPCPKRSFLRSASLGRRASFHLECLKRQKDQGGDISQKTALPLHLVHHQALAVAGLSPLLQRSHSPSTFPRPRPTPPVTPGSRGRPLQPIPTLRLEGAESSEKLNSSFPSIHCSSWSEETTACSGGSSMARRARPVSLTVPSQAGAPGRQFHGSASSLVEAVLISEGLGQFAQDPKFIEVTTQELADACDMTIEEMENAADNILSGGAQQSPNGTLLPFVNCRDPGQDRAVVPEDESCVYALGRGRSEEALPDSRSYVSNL
Sodium-dependent serotonin transporter, sequence (P31645 whole entry): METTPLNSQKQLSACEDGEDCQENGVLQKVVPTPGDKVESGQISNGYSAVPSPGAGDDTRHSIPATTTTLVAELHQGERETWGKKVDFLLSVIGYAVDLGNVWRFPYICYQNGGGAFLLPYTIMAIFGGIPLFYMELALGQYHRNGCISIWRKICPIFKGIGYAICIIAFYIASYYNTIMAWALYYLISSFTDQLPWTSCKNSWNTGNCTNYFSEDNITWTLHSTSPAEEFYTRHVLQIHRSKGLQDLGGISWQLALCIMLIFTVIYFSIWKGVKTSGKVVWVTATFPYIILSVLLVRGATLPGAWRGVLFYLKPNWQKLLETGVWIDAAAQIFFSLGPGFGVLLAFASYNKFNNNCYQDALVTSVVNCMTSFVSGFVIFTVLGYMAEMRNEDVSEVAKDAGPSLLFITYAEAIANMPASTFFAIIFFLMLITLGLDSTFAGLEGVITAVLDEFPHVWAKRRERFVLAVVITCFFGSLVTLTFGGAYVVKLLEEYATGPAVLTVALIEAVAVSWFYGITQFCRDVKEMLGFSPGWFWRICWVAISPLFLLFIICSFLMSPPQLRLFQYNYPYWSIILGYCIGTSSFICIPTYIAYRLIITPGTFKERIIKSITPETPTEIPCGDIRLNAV
Motilin receptor, sequence (O43193 whole entry): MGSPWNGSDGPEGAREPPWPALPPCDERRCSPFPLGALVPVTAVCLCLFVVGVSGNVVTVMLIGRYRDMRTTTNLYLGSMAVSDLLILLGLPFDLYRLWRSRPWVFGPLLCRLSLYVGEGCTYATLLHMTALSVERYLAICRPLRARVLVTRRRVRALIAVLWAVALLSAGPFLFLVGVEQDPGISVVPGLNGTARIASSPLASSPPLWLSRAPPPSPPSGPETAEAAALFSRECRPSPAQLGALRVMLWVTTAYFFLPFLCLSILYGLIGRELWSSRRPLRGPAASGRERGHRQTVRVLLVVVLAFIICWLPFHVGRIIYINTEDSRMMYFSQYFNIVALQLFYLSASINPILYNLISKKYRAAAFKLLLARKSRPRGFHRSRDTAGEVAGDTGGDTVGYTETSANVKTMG
Beta-2 adrenergic receptor, sequence (P07550 whole entry): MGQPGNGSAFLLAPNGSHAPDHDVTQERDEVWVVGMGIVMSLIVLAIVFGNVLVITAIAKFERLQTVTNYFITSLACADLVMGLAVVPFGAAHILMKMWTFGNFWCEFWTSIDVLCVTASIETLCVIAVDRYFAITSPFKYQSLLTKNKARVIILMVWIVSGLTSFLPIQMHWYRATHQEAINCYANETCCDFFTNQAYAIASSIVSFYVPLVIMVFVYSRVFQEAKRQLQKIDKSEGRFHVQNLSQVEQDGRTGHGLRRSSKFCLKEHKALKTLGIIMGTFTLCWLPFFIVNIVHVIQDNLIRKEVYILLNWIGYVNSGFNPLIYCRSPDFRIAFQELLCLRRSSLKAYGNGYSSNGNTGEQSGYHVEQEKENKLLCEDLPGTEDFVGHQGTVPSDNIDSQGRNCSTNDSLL

SMILES | AC50 [1] [µM] | AC50 [2] [µM] | AC50 [3] [µM] | AC50 [4] [µM] | AC50 [5] [µM] | AC50 [6] [µM] | AC50 [7] [µM] | AC50 [8] [µM] | AC50 [9] [µM]
O=C(O)c1cccc(-c2noc(-c3ccccc3F)n2)c1 | > 30 | > 30 |  |  |  |  |  |  | 
NS(=O)(=O)c1cc(-c2nnn[nH]2)c(NCc2cccs2)cc1Cl [AZOSEMIDE] | > 30 | > 30 | > 30 | > 30 | > 30 | > 30 | > 30 | > 30 | > 30
O=C(Cn1ccnc1[N+](=O)[O-])NCc1ccccc1 [BENZNIDAZOLE] | > 30 | > 30 | > 30 | > 30 | > 30 | > 30 | > 30 | > 30 | > 30
C[N+](C)(C)CC(=O)O [BETAINE] | > 30 | > 30 | > 30 | > 30 | > 30 | > 30 | > 30 | > 30 | > 30
CCCC(=O)N1CCCN(c2nc(N)c3cc(OC)c(OC)cc3n2)CC1 [BUNAZOSIN] |  |  | > 30 |  | > 30 | > 30 | > 30 | > 30 | > 30
C[N+](C)(C)CCOC(N)=O [CARBAMOYLCHOLINE] | > 10 | > 10 | > 10 | > 10 |  |  | > 10 |  | > 10
CC(C)(N)Cc1ccc(Cl)cc1 [CHLORPHENTERMINE] | > 30 | > 10 | > 30 | > 10 | 4.57 | > 30 |  | > 30 | > 10
CN(C)[C@@H]1C(O)=C(C(N)=O)C(=O)[C@@]2(O)C(O)=C3C(=O)c4c(O)ccc(Cl)c4[C@@H](O)[C@H]3C[C@@H]12 [DEMECLOCYCLINE] | > 10 | > 10 | > 10 | > 10 | > 10 |  |  |  | > 10
NS(=O)(=O)c1cc(Cl)c(Cl)c(S(N)(=O)=O)c1 [DICHLORPHENAMIDE] | > 10 | > 10 | > 10 | > 10 | > 10 |  | > 10 |  | > 10
O=C(Nc1ccccc1)OCC(CN1CCCCC1)OC(=O)Nc1ccccc1 (configuration not stated) [DIPERODON] | > 30 | > 10 | > 30 |  | > 10 | > 30 |  | > 30 | > 10
C=C1C[C@@H]2[C@H](CC[C@]3(C)C(=O)CC[C@@H]23)[C@@]2(C)C=CC(=O)C=C12 [EXEMESTANE] | > 30 | > 10 | > 30 | > 10 | > 30 | > 30 |  | > 30 | > 10
